# Measured values published in ChEMBL document CHEMBL4715748, “Synthesis and biological investigation of new equatorial (β) stereoisomers of 3-aminotropane arylamides with atypical antipsychotic profile” (Bioorg Med Chem, 2016).
# How the values were obtained:
# Mus musculus [1] = assay: Inhibition of 8-OH-DPAT-induced hypothermia in Swiss albino mouse assessed as change in rectal body temperature at 0.3 mg/kg, sc pretreated with compound for 45 mins followed by 8-OH-DPAT challenge and measured after 15 min by thermometer (reference value: -1.8 degreeC); assay type: functional, organism-based; settings: time 60.0 min
# Mus musculus [2] = assay: Inhibition of 8-OH-DPAT-induced hypothermia in Swiss albino mouse assessed as change in rectal body temperature at 0.3 mg/kg, sc pretreated with compound for 45 mins followed by 8-OH-DPAT challenge and measured after 30 min by thermometer (reference value: -1.7 degreeC); assay type: functional, organism-based; settings: time 75.0 min
# Mus musculus [3] = assay: Inhibition of 8-OH-DPAT-induced hypothermia in Swiss albino mouse assessed as change in rectal body temperature at 0.3 mg/kg, sc pretreated with compound for 45 mins followed by 8-OH-DPAT challenge and measured after 45 min by thermometer (reference value: -1.3 degreeC); assay type: functional, organism-based; settings: time 90.0 min
# Mus musculus [4] = assay: Inhibition of 8-OH-DPAT-induced hypothermia in Swiss albino mouse assessed as change in rectal body temperature at 0.3 mg/kg, sc pretreated with compound for 45 mins followed by 8-OH-DPAT challenge and measured after 60 min by thermometer (reference value: -1.3 degreeC); assay type: functional, organism-based; settings: time 105.0 min
# [5] = Effect on 8-OH-DPAT-induced lower lip retraction in Wistar rat at 0.1 mg/kg, sc pretreated with compound for 45 mins followed by 8-OH-DPAT challenge and measured after 15 mins (reference value: 2.7 to 2.8); assay type: functional; settings: time 60 min, 1 h
# [6] = Effect on 8-OH-DPAT-induced lower lip retraction in Wistar rat at 0.2 mg/kg, sc pretreated with compound for 15 mins followed by 8-OH-DPAT challenge and measured after 15 mins (reference value: 2.7 to 2.8); settings: time 30 min, 0.5 h
structure (smiles),measurement,setting,value
"COc1ccccc1N1CCN(CCN(C(=O)C2CCCCC2)c2ccccn2)CC1 [WAY-100,635]",deltaT,Mus musculus [1],-0.6 °C
same,deltaT,Mus musculus [2],-0.8 °C
same,deltaT,Mus musculus [3],-0.5 °C
same,deltaT,Mus musculus [4],-0.2 °C
same,Activity,[5],1.4
same,Activity,[6],1.3
